Among the data in ChEMBL document CHEMBL3991601, “The target landscape of clinical kinase drugs” (Science, 2017) are Kd values, retold here.

SMILES strings stand for the structures. Calls of active or inactive are those of the source. Cut-off read from the data, not from the text of the source, for most assays here: actives have a measured Kd and inactives only a lower limit.

Experiment [1] concerns the target Tyrosine-protein kinase BTK (Homo sapiens, UniProt Q06187).
Experiment [2] addresses T1, Receptor-type tyrosine-protein kinase FLT3 (Homo sapiens, UniProt P36888).
T1 sequence (P36888 whole entry): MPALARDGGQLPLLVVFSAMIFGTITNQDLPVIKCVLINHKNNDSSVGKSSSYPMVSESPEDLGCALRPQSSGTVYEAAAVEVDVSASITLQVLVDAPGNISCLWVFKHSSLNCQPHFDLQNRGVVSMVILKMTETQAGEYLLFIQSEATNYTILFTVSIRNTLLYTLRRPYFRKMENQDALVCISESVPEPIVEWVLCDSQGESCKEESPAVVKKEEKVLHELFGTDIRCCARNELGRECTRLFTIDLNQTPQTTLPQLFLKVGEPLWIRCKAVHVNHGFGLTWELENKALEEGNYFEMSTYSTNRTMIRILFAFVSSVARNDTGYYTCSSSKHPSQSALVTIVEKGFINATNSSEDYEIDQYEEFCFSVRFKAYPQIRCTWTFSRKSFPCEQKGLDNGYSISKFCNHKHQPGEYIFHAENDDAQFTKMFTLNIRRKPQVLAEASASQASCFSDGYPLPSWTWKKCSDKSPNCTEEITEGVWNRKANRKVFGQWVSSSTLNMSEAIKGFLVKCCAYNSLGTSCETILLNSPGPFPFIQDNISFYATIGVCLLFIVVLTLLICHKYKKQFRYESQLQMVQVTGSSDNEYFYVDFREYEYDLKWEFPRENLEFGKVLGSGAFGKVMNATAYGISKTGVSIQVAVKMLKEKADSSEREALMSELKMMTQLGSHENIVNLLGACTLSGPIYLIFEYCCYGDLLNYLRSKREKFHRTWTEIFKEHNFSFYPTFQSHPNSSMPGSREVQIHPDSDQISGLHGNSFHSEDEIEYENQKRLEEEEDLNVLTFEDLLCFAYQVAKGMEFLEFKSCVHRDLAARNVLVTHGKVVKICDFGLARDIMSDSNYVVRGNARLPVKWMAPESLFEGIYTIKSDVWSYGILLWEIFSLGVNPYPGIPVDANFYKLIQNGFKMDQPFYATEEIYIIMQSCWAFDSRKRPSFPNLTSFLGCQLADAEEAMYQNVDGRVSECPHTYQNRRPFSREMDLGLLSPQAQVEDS

For experiment [3], the target named is Mitogen-activated protein kinase kinase kinase 1 (Homo sapiens, UniProt Q13233).
Sequence of Mitogen-activated protein kinase kinase kinase 1 (Q13233 whole entry): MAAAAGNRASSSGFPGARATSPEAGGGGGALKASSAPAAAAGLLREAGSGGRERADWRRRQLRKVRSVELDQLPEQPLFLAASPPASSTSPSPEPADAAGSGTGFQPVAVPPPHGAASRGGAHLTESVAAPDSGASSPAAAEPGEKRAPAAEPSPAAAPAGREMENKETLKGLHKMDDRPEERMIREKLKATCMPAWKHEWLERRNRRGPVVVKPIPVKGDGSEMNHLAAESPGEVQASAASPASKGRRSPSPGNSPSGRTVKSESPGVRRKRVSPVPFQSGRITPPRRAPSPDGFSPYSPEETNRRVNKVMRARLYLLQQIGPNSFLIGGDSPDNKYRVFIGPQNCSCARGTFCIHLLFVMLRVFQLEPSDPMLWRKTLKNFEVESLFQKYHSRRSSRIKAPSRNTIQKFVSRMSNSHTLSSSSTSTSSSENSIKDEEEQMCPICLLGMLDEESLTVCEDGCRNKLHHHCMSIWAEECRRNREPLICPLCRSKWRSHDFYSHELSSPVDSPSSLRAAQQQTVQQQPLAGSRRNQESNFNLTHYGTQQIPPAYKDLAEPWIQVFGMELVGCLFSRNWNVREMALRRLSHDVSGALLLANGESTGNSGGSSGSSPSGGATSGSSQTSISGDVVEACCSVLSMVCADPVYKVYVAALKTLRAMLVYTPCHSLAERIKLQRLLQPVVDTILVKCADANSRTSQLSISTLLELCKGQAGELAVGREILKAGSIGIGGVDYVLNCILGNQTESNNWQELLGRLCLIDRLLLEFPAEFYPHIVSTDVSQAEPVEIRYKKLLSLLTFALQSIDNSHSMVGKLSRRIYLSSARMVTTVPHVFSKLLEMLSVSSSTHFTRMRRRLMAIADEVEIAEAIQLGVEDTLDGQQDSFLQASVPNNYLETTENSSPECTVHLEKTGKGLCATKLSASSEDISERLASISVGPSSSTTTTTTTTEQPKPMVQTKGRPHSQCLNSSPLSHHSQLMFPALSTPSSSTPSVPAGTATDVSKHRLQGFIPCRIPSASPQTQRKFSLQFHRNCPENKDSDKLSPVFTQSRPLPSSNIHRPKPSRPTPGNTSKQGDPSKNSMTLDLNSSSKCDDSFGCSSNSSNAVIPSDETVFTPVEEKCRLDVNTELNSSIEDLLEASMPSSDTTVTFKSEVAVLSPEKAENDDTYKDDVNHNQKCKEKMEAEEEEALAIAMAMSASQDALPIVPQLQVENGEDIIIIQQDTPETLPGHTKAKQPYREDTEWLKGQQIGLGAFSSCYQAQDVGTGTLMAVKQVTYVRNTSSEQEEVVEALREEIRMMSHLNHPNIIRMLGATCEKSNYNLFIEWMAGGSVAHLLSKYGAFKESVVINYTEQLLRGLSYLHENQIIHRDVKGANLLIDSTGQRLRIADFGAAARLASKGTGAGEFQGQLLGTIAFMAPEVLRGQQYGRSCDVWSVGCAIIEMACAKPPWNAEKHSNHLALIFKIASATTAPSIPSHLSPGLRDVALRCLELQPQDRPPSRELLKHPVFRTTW
For experiment [4], the target named is Mitogen-activated protein kinase kinase kinase 4 (Homo sapiens, UniProt Q9Y6R4).
Sequence of Mitogen-activated protein kinase kinase kinase 4 (Q9Y6R4 whole entry): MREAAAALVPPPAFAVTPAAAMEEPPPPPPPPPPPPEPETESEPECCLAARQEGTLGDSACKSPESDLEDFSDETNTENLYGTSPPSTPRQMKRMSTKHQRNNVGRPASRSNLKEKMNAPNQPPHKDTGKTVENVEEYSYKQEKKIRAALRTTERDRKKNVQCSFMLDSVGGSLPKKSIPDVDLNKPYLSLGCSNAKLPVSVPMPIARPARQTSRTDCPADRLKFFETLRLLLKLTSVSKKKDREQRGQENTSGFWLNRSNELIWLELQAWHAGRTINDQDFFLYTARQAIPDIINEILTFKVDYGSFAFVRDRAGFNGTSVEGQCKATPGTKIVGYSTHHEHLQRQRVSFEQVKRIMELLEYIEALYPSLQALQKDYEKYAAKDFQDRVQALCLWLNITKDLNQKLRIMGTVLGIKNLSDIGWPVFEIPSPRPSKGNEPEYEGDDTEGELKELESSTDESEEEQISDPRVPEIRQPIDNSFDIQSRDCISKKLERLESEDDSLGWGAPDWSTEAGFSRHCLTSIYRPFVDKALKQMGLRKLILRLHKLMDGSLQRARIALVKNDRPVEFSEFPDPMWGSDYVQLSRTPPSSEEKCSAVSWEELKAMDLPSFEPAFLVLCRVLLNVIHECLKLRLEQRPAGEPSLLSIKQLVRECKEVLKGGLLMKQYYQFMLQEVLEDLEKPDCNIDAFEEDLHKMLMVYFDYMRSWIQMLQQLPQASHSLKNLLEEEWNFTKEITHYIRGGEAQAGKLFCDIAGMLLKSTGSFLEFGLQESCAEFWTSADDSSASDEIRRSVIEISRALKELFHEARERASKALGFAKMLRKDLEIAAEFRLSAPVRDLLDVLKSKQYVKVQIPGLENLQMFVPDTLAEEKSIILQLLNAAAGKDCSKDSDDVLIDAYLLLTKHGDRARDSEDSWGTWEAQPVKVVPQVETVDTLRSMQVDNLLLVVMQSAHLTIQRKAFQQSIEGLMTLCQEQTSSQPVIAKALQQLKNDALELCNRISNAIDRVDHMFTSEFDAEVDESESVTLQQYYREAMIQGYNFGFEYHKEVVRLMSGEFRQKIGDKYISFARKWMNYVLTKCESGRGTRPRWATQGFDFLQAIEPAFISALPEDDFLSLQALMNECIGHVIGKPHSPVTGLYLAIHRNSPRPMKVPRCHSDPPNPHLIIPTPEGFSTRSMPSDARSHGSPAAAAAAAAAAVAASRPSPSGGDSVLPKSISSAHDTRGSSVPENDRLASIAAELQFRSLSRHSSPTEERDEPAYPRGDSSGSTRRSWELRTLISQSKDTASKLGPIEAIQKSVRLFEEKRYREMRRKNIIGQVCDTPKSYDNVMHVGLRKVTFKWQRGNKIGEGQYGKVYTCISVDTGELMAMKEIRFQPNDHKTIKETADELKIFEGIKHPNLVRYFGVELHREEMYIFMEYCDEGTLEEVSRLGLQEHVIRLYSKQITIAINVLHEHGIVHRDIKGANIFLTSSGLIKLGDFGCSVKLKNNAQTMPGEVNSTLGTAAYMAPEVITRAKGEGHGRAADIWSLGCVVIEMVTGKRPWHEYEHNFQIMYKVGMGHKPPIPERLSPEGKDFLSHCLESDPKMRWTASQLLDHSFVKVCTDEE
Experiment [5] concerns the target Obg-like ATPase 1 (Homo sapiens, UniProt Q9NTK5).
For experiment [6], the target named is Rho-associated protein kinase 2 (Homo sapiens, UniProt O75116).
Sequence of Rho-associated protein kinase 2 (O75116 whole entry): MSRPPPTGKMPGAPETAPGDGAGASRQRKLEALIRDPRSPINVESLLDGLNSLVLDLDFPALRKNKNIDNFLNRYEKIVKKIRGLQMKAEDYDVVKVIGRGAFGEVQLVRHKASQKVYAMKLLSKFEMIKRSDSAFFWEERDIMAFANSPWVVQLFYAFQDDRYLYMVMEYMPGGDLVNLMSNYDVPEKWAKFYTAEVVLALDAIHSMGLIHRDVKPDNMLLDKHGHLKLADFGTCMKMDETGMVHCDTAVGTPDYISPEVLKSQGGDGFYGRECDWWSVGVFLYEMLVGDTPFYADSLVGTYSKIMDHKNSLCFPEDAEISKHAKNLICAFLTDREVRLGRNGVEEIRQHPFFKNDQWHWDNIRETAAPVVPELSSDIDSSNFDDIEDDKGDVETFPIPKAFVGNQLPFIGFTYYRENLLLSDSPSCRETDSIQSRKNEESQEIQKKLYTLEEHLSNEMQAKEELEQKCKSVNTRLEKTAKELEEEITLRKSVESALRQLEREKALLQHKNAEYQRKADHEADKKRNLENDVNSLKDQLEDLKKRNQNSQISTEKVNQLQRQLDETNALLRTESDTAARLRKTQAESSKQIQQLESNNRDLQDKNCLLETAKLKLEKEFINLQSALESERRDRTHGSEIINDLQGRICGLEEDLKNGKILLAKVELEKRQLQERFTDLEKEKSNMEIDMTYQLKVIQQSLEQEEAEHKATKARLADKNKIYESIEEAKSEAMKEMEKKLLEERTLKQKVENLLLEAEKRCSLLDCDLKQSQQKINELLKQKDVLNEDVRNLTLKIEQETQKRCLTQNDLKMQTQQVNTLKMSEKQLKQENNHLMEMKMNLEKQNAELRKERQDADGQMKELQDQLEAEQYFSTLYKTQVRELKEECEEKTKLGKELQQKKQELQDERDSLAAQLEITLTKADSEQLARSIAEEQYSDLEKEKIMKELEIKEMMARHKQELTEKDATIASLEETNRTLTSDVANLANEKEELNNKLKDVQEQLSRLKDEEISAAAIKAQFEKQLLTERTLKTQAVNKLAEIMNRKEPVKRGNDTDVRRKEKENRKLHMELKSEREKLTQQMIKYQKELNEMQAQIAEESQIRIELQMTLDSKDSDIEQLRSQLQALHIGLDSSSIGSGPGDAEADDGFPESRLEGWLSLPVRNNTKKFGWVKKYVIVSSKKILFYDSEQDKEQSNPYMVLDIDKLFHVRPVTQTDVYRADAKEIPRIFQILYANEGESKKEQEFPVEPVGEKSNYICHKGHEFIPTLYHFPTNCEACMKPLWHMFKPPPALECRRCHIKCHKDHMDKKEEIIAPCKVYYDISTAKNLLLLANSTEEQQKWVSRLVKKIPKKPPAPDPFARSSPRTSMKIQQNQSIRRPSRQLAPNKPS
Experiment [7] deals with Serine/threonine-protein kinase SIK2 (Homo sapiens, UniProt Q9H0K1).
The target in experiment [8] is T2, Serine/threonine-protein kinase TAO3 (Homo sapiens, UniProt Q9H2K8).
T2 sequence (Q9H2K8 whole entry): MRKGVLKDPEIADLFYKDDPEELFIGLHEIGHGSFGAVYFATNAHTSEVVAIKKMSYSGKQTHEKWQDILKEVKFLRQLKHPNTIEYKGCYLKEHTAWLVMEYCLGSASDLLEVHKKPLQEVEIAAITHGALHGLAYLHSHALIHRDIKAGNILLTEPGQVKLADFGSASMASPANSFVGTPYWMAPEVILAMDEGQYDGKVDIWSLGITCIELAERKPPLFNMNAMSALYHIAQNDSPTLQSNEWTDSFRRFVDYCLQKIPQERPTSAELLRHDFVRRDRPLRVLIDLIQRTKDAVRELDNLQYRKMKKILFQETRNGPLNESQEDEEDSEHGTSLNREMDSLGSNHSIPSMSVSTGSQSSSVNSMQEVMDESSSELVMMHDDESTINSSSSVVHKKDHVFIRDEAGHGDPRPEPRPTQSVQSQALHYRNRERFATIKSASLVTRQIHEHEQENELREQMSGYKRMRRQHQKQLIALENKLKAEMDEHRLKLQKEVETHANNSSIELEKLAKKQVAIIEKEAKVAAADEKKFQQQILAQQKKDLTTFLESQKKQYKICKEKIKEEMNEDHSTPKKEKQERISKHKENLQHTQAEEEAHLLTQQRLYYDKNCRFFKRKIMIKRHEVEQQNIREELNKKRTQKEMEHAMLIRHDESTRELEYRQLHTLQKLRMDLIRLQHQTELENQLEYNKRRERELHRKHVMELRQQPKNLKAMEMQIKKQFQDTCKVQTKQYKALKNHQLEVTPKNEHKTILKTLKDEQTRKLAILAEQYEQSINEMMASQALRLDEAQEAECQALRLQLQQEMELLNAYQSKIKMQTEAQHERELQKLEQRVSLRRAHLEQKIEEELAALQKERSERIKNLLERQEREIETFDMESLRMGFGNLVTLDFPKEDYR

Experiment [9] addresses TRAF2 and NCK-interacting protein kinase (Homo sapiens, UniProt Q9UKE5).
For experiment [10], the target named is T3, Non-receptor tyrosine-protein kinase TNK1 (Homo sapiens, UniProt Q13470).
T3 sequence (Q13470 whole entry): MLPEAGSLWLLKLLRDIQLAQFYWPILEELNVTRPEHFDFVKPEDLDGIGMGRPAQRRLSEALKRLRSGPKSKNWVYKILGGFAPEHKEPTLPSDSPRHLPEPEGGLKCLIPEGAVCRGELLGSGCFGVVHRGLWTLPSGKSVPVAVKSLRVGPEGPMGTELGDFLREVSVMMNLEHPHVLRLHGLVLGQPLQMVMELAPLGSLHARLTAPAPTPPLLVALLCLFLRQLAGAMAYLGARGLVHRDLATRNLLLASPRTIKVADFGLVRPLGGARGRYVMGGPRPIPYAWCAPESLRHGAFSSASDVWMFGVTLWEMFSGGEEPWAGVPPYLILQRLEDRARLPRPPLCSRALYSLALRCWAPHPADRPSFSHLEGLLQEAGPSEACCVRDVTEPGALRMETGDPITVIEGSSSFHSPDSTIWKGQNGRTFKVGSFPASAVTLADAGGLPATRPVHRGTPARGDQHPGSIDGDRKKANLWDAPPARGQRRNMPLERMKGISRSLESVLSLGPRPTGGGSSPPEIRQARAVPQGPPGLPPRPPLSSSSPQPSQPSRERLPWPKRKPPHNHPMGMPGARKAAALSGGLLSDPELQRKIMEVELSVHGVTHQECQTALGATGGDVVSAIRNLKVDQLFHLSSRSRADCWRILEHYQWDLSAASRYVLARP

In experiment [11] the target is DNA topoisomerase 2-alpha (Homo sapiens, UniProt P11388).
Note: in the data inactive means no Kd found up to 30 µM.

Sequence of Obg-like ATPase 1 (Q9NTK5 whole entry, looked up): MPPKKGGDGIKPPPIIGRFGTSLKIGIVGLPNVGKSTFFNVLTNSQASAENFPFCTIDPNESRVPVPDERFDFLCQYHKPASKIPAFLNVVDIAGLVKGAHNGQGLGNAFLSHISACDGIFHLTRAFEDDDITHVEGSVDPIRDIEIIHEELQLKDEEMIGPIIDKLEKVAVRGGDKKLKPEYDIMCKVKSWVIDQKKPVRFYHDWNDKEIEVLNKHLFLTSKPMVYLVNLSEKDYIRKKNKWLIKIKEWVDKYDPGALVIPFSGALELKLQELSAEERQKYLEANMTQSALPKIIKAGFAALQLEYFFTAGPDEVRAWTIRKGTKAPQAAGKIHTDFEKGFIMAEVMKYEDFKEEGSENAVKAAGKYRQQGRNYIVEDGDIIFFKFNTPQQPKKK

On to `Cn1cnc2c(F)c(Nc3ccc(Br)cc3F)c(C(=O)NOCCO)cc21` [BINIMETINIB], for which the Kd in [1], in experiment [2], in [3], in [4], in experiment [5] and in experiment [6] was > 30 µM (inactive) throughout. For the same molecule, the Kd in experiment [7], in experiment [8], in experiment [9], in [10] and in experiment [11] was > 30 µM (inactive) in each case.
Turning to `COc1cc2ncnc(Oc3cccc(NC(=O)Nc4cc(C(C)(C)C(F)(F)F)on4)c3)c2cc1OC` [CEP-32496], the Kd (in general, the concentration at which binding is half-saturated) in experiment [1] is > 30 µM (inactive); in experiment [2], 0.55 µM (active); in experiment [3] it was > 30 µM (inactive); in experiment [4], > 30 µM (inactive); in experiment [5], > 30 µM (inactive); in experiment [6] it was > 30 µM (inactive). Also, the Kd in experiment [7], in experiment [8], in [9], in experiment [10] and in experiment [11] was > 30 µM (inactive) throughout.
Take `COCC(=O)NC/C=C/c1ccc2ncnc(Nc3ccc(Oc4ccc(C)nc4)c(C)c3)c2c1` [CP-724714]: the Kd in experiment [1], in experiment [2], in experiment [3], in experiment [4], in experiment [5] and in experiment [6] was > 30 µM (inactive) each time. The Kd in experiment [7], in [8], in [9], in experiment [10] and in experiment [11] was > 30 µM (inactive) throughout.
In the case of `C#Cc1cccc(Nc2ncnc3cc(OC)c(OCCCCCCC(=O)NO)cc23)c1` [CUDC-101], the Kd in [1] was > 30 µM (inactive); in experiment [2], > 30 µM (inactive); in [3], 1.28 µM (active); in experiment [4], > 30 µM (inactive); in [5], > 30 µM (inactive); in experiment [6], > 30 µM (inactive). The Kd in experiment [7], in experiment [8], in [9], in experiment [10] and in [11] was > 30 µM (inactive) throughout.
Take `Cc1nc2cc(-n3ncc(C(=O)c4cc5ccccc5[nH]4)c3N)ccc2[nH]1` [FGFR INHIBITOR DEBIO 1347]: the Kd in experiment [1], in experiment [2], in experiment [3], in [4], in [5] and in experiment [6] was > 30 µM (inactive) in each case. In addition, the Kd in [7], in [8], in experiment [9], in experiment [10] and in [11] was > 30 µM (inactive) throughout.
Take `Cc1cccc(-c2nn3c(c2-c2ccnc4ccc(C(N)=O)cc24)CCC3)n1` [GALUNISERTIB]: the Kd in experiment [1], in [2], in experiment [3], in [4], in [5] and in experiment [6] was > 30 µM (inactive) each time. Also, the Kd in experiment [7] was > 30 µM (inactive); in experiment [8] it was > 30 µM (inactive); in experiment [9], 1.21 µM; in experiment [10], > 30 µM (inactive); in [11], > 30 µM (inactive).
As to `COc1ccc(S(=O)(=O)N(C(C)=O)c2ccccc2/C=C/c2cc[n+]([O-])cc2)cc1` [HMN-214], the Kd in [1], in [2], in [3], in experiment [4], in [5] and in [6] was > 30 µM (inactive) throughout. The Kd in [7], in experiment [8], in experiment [9], in experiment [10] and in experiment [11] was > 30 µM (inactive) throughout.
Regarding `CNC(=O)c1cccc2cc(Oc3ccnc4cc(OCC5(N)CC5)c(OC)cc34)ccc12` [LUCITANIB], the Kd in experiment [1], in experiment [2], in experiment [3], in [4], in experiment [5] and in experiment [6] was > 30 µM (inactive) in each case. The Kd in [7], in experiment [8], in experiment [9], in [10] and in experiment [11] was > 30 µM (inactive) each time.
Regarding `NC1(c2ccc(-c3nc4ccn5c(=O)[nH]nc5c4cc3-c3ccccc3)cc2)CCC1` [MK-2206], the Kd in experiment [1], in [2], in [3], in experiment [4], in [5] and in experiment [6] was > 30 µM (inactive) in each case. Besides, the Kd in experiment [7], in [8], in [9], in experiment [10] and in [11] was > 30 µM (inactive) each time.
